# Test results from patent publication US20050136121A1, “Oral peptide delivery system with improved bioavailability” (SHEAR/KERSHMAN LABORATORIES, INC., priority 2003, published 2005).
# Test: Study 2: female adult dogs fed formulations or injected with Humulin, serum glucose level
# Type: in vivo
# Experimental: Female adult dogs were fed the formulations from Examples 3 to 5. Further dogs were injected with Humulin and given 0.05 mL of 100 U/mL. Before being fed or injected the formulations, the animals fasted overnight. The dogs were fed 4 to 6 hours after dosing.
substance,measurement,setting,value
"Humulin: injected insulin comparator, 0.05 mL of 100 U/mL",time after dosing at which glucose level began increasing,injected 0.05 mL of 100 U/mL,about 2 hours
same,drop in glucose levels,"injected 0.05 mL of 100 U/mL, within minutes",67%
same,time at which glucose levels returned to normal levels,"injected, after eating",about 12 hours
same,glucose levels at hours 6 to 10,"injected, ate dog food at 4 to 6 hours",above the normal levels
